Experimental data taken from US9566222B2, “Peptidyl arginine deiminase 1 and/or 3 activator compounds in the epidermis and uses thereof” (PIERRE FABRE DERMO-COSMETIQUE, priority 2011, dated 2017).

Columns and labels:
[1] = system: Reconstructed human epidermises; assay: Deiminated proteins in horny layer of reconstructed epidermises after topical gel, immunohistology (AMC); format: cell-based; conditions: gel containing 3% acefylline as sodium salt, 24 hours
Method: Reconstructed human epidermises 0.33 cm^2 in size were grown at the air-liquid interface for 14 days. 5 mg/cm^2 of pre-formulas containing the various active agents was then applied homogeneously to their surface using a brush. Triplicates were carried out for a treatment period of 24 hours at 37° C. The epidermises were then divided: half were frozen in Tissue Tek and then 6 μm cryo-sections were made for immunohistology; the other half were dry frozen at −80° C. for the preparation of total protein extracts before analysis by Western blot.
The deiminated proteins were immunodetected as described above after incubation in modification buffer. Negative controls were prepared systematically by omitting the modification. After washing with water, the sections were incubated with AMC anti-citrulline antibody diluted to 1/1000. Finally, counter-staining was carried out with hematoxylin.

PAD1 = molecular target: T1, PAD1 (Homo sapiens, UniProt Q9ULC6); assay: Deimination of recombinant human filaggrin (Fil-His) by PAD1, immunodetection with AMC anti-citrulline antibody; format: biochemical; conditions: 5 mM streptomycin vs solvent alone (1% dimethylsulfoxide); 3 or 5 min incubation
T1 construct: purchased Professor Hidenari Takahara (University of Ibaraki, Japan)
T1 sequence (Q9ULC6 1-663): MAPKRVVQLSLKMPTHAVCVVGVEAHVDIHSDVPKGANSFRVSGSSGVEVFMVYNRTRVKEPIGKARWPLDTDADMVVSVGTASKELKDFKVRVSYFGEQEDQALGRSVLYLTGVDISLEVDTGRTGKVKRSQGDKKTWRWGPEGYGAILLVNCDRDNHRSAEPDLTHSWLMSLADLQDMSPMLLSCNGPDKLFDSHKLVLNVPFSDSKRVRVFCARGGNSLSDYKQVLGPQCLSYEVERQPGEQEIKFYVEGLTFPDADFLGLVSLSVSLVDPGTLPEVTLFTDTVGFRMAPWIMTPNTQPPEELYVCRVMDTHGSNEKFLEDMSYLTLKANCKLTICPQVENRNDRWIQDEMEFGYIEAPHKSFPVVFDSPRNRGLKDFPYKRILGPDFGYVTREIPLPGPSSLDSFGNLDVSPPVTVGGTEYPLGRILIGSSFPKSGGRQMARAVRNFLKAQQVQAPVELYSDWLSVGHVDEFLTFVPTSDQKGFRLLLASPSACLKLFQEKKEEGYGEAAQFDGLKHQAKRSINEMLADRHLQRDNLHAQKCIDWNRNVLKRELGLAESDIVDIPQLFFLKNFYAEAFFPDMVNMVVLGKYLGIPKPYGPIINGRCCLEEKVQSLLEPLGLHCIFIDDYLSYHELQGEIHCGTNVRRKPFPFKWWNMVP
Method: 25 ng of Fil-His was incubated at 50° C. in the presence of 40 mU of PAD1 or PAD3 in deimination buffer (10 mM CaCl2, 5 mM dithiothreitol, 50 mM Tris-HCl pH 7.4). After a variable incubation period according to the PAD isoform (generally 2 to 5 minutes for PAD1 and 60 to 180 minutes for PAD3), the reaction was quenched by adding sample buffer. The proteins were then separated by SDS-PAGE and immunodetected by AHF11 anti-filaggrin monoclonal antibody and AMC modified anti-citrulline antibody (Millipore, Mollsheim, France) diluted to 1/5000.
The deimination of Fil-His (25 ng) was carried out as described above (paragraph A.3), in deimination buffer (10 mM CaCl2, 5 mM dithiothreitol, 50 mM Tris-HCl pH 7.4) at 50° C. in the presence of 40 mU of PAD1 or PAD3, for 0, 3, 5, 60 and 180 minutes. […] In certain cases, the active agents were diluted in water. After incubation, the proteins of the reaction mixture were immunodetected by AMC antibody. The immunodetection intensity was quantified by densitometry with the NIH ImageJ software.

Effect on PAD1 (AMC immunodetection intensity of deiminated Fil-His) (PAD1) | SMILES | Immunodetection intensity (AMC staining) of the horny layer vs control gel [1]
– | Cn1c(=O)c2c(ncn2CC(=O)[O-])n(C)c1=O.[Na+] [acefylline in the form of sodium salt] | stronger
inhibited | [H]/N=C(/N)N[C@H]1[C@H](O)[C@@H](O)[C@H](O[C@@H]2O[C@@H](C)[C@](O)(C=O)[C@H]2O[C@@H]2O[C@@H](CO)[C@H](O)[C@@H](O)[C@@H]2NC)[C@@H](N/C(N)=N\[H])[C@@H]1O [streptomycin] | –
